Assay results published in patent CN109762015A, “一种阿维菌素B2a磷酸化修饰物及其制备方法和应用” (HEBEI MEIHE PHARMACEUTICAL Co Ltd, priority 2019, dated 2019).

How the values were obtained:
[1] = tested on: root-knot nematode of watermelon (西瓜根结线虫); test: Field trial: control of watermelon root-knot nematode (Example 7); assay type: in vivo; conditions: 0.25 g/plant, hole application at transplanting; assessed 2 d before harvest, five-point sampling, 10 plants per field
[2] = tested on: other diseases and pests and non-target organisms (其他病虫害及非靶标生物); test: Safety evaluation: effect on other diseases/pests and non-target organisms (Example 7); assay type: in vivo; conditions: 0.25 g/plant, hole application at transplanting
watermelon (西瓜) = test: Watermelon yield after treatment (Example 8); assay type: in vivo; conditions: 0.25 g/plant at transplanting
plants (植株) = conditions: background statement; cited from earlier work

SMILES: CC[C@H](C)[C@H]1O[C@@]2(C[C@@H]3C[C@@H](C/C=C(\C)[C@@H](O[C@H]4C[C@H](OC)[C@@H](O[C@H]5C[C@H](OC)[C@@H](O)[C@H](C)O5)[C@H](C)O4)[C@@H](C)/C=C/C=C4\CO[C@@H]5[C@H](O)C(C)=C[C@@H](C(=O)O3)[C@]45O)O2)C[C@H](O)[C@@H]1C [阿维菌素B2a]
- control effect [1]: 83.32%
- effect on other diseases/pests and non-target organisms [2]: 无不良影响
- single fruit weight (watermelon (西瓜); 3 watermelons per field, blank field 5.98): 7.01 kg
- converted yield (watermelon (西瓜); converted from weighing 3 watermelons per field, blank field 38967.4): 47784.9 kg·hm-2
- growth rate relative to blank field (yield increase) (watermelon (西瓜); versus blank field): 22.62%
- phytotoxicity in individual plants (plants (植株)): 会使个别植株出现黄化、烧根等现象
